Where two headings read alike, the source gives them in different places.

Test [1] deals with T1, Drosophila OR10a (Drosophila melanogaster, UniProt Q9VYZ1).
T1 construct: expressed in transfected cells
T1 sequence (Q9VYZ1 1-406): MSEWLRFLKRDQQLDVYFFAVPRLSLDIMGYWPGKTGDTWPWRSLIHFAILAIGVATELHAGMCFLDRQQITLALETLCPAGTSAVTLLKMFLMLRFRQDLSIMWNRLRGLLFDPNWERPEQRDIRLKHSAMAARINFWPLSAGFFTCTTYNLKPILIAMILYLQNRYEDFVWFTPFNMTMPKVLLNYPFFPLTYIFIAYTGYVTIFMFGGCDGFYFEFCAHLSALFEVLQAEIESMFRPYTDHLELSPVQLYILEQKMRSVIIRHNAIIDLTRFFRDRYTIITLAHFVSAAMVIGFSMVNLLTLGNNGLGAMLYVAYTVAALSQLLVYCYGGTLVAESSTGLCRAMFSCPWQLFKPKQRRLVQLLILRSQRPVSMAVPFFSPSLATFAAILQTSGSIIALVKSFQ
T1 sequence (Q9VNB5 1-486 partner): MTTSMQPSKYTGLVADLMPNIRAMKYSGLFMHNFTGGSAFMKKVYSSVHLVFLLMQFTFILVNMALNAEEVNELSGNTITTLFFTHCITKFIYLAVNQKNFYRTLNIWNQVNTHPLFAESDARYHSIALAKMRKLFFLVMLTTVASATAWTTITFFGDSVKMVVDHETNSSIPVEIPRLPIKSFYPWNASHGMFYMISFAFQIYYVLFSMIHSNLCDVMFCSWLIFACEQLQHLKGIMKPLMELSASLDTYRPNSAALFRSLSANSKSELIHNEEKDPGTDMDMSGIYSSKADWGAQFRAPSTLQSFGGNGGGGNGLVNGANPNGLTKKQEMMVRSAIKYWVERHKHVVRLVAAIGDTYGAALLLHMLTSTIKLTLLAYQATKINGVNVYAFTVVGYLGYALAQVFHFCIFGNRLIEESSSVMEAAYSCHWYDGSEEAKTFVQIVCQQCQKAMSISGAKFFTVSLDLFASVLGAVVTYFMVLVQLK
The test is described as follows: Calcium ion fluorescence (GCaMP6) assay, OR10a stable HEK293 cell line. In kind it is cell-based. An outline of the steps: (§1)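 Responses are VUAA1-normalized ΔF: each VOC-evoked calcium signal, (FMAX−F0)/F0 over 30 s after injection, divided by the same line's mean 50 µM VUAA1 response. Cells were doxycycline-induced HEK293 with GCaMP6 and the cognate Drosophila OR, in HEPES buffer pH 7.3; ligands tested 0.01–100 μM.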

In test [2] the target is T2, Drosophila OR47a (Drosophila melanogaster, UniProt P81921).
T2 construct: expressed in transfected cells
T2 sequence (P81921 1-385): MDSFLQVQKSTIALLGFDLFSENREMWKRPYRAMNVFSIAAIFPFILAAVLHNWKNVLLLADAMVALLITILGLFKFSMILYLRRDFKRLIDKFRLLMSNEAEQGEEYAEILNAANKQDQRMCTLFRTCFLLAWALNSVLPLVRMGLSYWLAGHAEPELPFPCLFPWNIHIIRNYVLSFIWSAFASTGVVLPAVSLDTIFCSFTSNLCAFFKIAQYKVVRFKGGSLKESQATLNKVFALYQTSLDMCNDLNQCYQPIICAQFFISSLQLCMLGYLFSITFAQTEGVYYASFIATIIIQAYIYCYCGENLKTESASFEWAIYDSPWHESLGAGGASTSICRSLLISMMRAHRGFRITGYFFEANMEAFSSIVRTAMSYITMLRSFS
T2 sequence (Q9VNB5 1-486 partner): T1 sequence (Q9VNB5 1-486 partner)
The test is described as follows: Calcium ion fluorescence (GCaMP6) assay, OR47a stable HEK293 cell line. In kind it is cell-based. The note with it: for activation at 1 µM / activation at 10 µM / activation at 100 µM: HEK293, read-out: OR47a response (VUAA1-normalized response); for Average response: mean of biological replicates; for OR47a Average response (VUAA1-normalized): 50 μM VUAA1 = 1. An outline of the steps:
as §1

The mark [3] stands for this setting: HEK293, read-out: OR10a Average response (VUAA1-normalized), 1 μM VOC, 50 μM VUAA1 = 1, responses not exceeding 0.05 considered 0.
The mark [4] stands for this setting: HEK293, read-out: OR10a Average response (VUAA1-normalized), 10 μM VOC, 50 μM VUAA1 = 1, responses not exceeding 0.05 considered 0.
Where [5] appears, read: HEK293, read-out: OR10a Average response (VUAA1-normalized), 100 μM VOC, 50 μM VUAA1 = 1, responses not exceeding 0.05 considered 0.
The mark [6] stands for this setting: HEK293, read-out: OR10a response (VUAA1-normalized response), VOC concentration 1 μM.
Setting [7] is: HEK293, read-out: OR10a response (VUAA1-normalized response), VOC concentration 10 μM.
[8] abbreviates: HEK293, read-out: OR10a response (VUAA1-normalized response), VOC concentration 100 μM.
Where [9] appears, read: concentration 1, normalized fluorescence change, values below 0.05 threshold given as 0.
[10] abbreviates: concentration 10, normalized fluorescence change, values below 0.05 threshold given as 0.
Setting [11] is: concentration 100, normalized fluorescence change, values below 0.05 threshold given as 0.
Setting [12] is: OR47a cell line, odorant cc. 1 µM.
The mark [13] stands for this setting: OR47a cell line, odorant cc. 10 µM.
Where [14] appears, read: OR47a cell line, odorant cc. 100 µM.
The mark [15] stands for this setting: ligand concentration 1 (unit not given), threshold 0.05, below shown as 0.
[16] abbreviates: ligand concentration 10 (unit not given), threshold 0.05, below shown as 0.
[17] abbreviates: ligand concentration 100 (unit not given), threshold 0.05, below shown as 0.
Setting [18] is: HEK293, 1 μM VOC, 50 μM VUAA1 = 1, responses not exceeding 0.05 considered 0, read-out: OR10a Average response (VUAA1-normalized).
Where [19] appears, read: HEK293, 10 μM VOC, 50 μM VUAA1 = 1, responses not exceeding 0.05 considered 0, read-out: OR10a Average response (VUAA1-normalized).
The mark [20] stands for this setting: HEK293, 100 μM VOC, 50 μM VUAA1 = 1, responses not exceeding 0.05 considered 0, read-out: OR10a Average response (VUAA1-normalized).

For the molecule `C=C1CC[C@H]2O[C@]2(C)CC[C@@H]2[C@@H]1CC2(C)C` [(-)-caryophyllene oxide], the activation at 1 µM in test [1] (setting [3]), in test [1] (setting [6]) and in test [2] was 0% in each case. Further, the activation at 10 µM in test [1] (setting [4]), in test [1] (setting [7]) and in test [2] was 0% each time. Further, the activation at 100 µM in test [1] (setting [5]), in test [1] (setting [8]) and in test [2] was 0% in each case. For the same molecule, the “DF norm AVERAGE OR10a” value in test [1] (setting [9]), in test [1] (setting [10]) and in test [1] (setting [11]) was 0 in each case. The Average response in test [2] (setting [12]), in test [2] (setting [13]) and in test [2] (setting [14]) was 0.00 each time. Further, the “DF norm AVERAGE OR47a” value in test [2] (setting [9]), in test [2] (setting [10]) and in test [2] (setting [11]) was 0 throughout.

On to `Cc1ccc(C(C)C)cc1` [p-cymene], for which, in test [1] (setting [3]), the activation at 1 µM worked out at 0%. In addition, the activation at 10 µM in test [1] (setting [4]) was found to be 0%. The activation at 100 µM in test [1] (setting [5]) turned out to be 0%. The “OR10a response (VUAA1-normalized) at 1 μM” value in test [1] (OR10a cell line, VOC concentration 1 μM) is recorded as 0.00. Moreover, the “OR10a response (VUAA1-normalized) at 10 μM” value in test [1] (OR10a cell line, VOC concentration 10 μM) amounted to 0.00. The “OR10a response (VUAA1-normalized) at 100 μM” value in test [1] (OR10a cell line, VOC concentration 100 μM) is reported as 0.00. Also, the “DF norm AVERAGE OR10a” value in test [1] (setting [15]), in test [1] (setting [16]) and in test [1] (setting [17]) was 0 each time. In addition, the “OR47a response (VUAA1-normalized) at 1 μM” value in test [2] (OR47a cell line, VOC concentration 1 μM) was 0.00. In test [2] (OR47a cell line, VOC concentration 10 μM), the “OR47a response (VUAA1-normalized) at 10 μM” value is reported as 0.00. Also, the “OR47a response (VUAA1-normalized) at 100 μM” value in test [2] (OR47a cell line, VOC concentration 100 μM) was determined as 0.00. Besides, the Average response in test [2] (setting [12]), in test [2] (setting [13]) and in test [2] (setting [14]) was 0.00 each time. Moreover, the “DF norm AVERAGE OR47a” value in test [2] (setting [15]), in test [2] (setting [16]) and in test [2] (setting [17]) was 0 in each case.

In the case of `CCOC(=O)CC` [ethyl propionate], the values for the activation at 1 µM in test [1] (setting [18]), in test [1] (setting [6]) and in test [2] were 1.56%, 0% and 0%, respectively. Further, the values for the activation at 10 µM in test [1] (setting [19]), in test [1] (setting [7]) and in test [2] were 1.89%, 0% and 0%, respectively. Besides, the activation at 100 µM in test [1] (setting [20]), in test [1] (setting [8]) and in test [2] was 0% each time. For the same molecule, the “DF norm AVERAGE OR10a” value in test [1] (setting [15]), in test [1] (setting [16]) and in test [1] (setting [17]) was 0 each time. The figures for the Average response in test [2] (setting [12]), in test [2] (setting [13]) and in test [2] (setting [14]) were 0.00, 0.0134 and 0.0175, respectively. The “DF norm AVERAGE OR47a” value in test [2] (setting [15]), in test [2] (setting [16]) and in test [2] (setting [17]) was 0 each time.

For `CC/C=C/CCO` [e3-hexenol], the “OR10a Average response (VUAA1-normalized)” value is 0.0153 in test [1] (1 μM VOC, 50 μM VUAA1 = 1, responses not exceeding 0.05 considered 0); 0.00 in test [1] (10 μM VOC, 50 μM VUAA1 = 1, responses not exceeding 0.05 considered 0); 0.074 in test [1] (100 μM VOC, 50 μM VUAA1 = 1, responses not exceeding 0.05 considered 0). The “DF norm AVERAGE OR10a” value in test [1] (setting [15]) turned out to be 0; in test [1] (setting [16]), 0; in test [1] (setting [17]), 0.07404. Also, the “OR47a Average response (VUAA1-normalized)” value in test [2] (1 μM VOC) came to 0.06; in test [2] (10 μM VOC) it was 0.00; in test [2] (100 μM VOC), 0.14. For the same molecule, the Average response turned out to be 0.06 in test [2] (setting [12]), 0.00 in test [2] (setting [13]) and 0.14 in test [2] (setting [14]). For the same molecule, the “DF norm AVERAGE OR47a” value in test [2] (setting [15]) is listed as 0.06256; in test [2] (setting [16]), 0; in test [2] (setting [17]), 0.1396.

`CC(=O)c1ccccc1` [acetophenone]: the activation at 1 µM is 4% in test [1] (setting [18]), 0% in test [1] (setting [6]) and 0% in test [2]. Moreover, the activation at 10 µM in test [1] (setting [19]), in test [1] (setting [7]) and in test [2] was 0% each time. Moreover, the activation at 100 µM stood at 24% in test [1] (setting [20]), 24% in test [1] (setting [8]) and 0% in test [2]. The “DF norm AVERAGE OR10a” value in test [1] (setting [15]) came to 0; in test [1] (setting [16]), 0; in test [1] (setting [17]) it was 0.2367. The Average response in test [2] (setting [12]) is listed as 0.0171; in test [2] (setting [13]), 0.00; in test [2] (setting [14]) it was 0.0243. Further, the “DF norm AVERAGE OR47a” value in test [2] (setting [15]), in test [2] (setting [16]) and in test [2] (setting [17]) was 0 throughout.

Consider `CCCCCC(O)CC` (stereo not drawn) [3-octanol], for which the entries for the “DF norm AVERAGE OR10a” value in test [1], in test [1] (setting [10]) and in test [1] (setting [11]) were 0, 0.05884 and 0.05921, respectively. The activation at 1 µM in test [1] (setting [18]), in test [1] (setting [6]) and in test [2] was 0% in each case. Moreover, the values for the activation at 10 µM in test [1] (setting [19]), in test [1] (setting [7]) and in test [2] were 6%, 6% and 0%, respectively. Further, the figures for the activation at 100 µM in test [1] (setting [20]), in test [1] (setting [8]) and in test [2] were 6%, 6% and 9%, respectively. In addition, the Average response is 0.00 in test [2] (setting [12]), 0.00 in test [2] (setting [13]) and 0.09 in test [2] (setting [14]). The entries for the “DF norm AVERAGE OR47a” value in test [2] (setting [9]), in test [2] (setting [10]) and in test [2] (setting [11]) were 0, 0 and 0.08889, respectively.
